Source: patent US11668702B2, “Regulation of fungal fruiting body development” (The Chinese University of Hong Kong, priority 2017, dated 2023)
Entries after “also recorded” stand apart in the source; their conditions may differ.

Experiments:
[1] = system: C. cinerea; test: C. cinerea fruiting body development, solution spread on YMG agar surface before inoculation (Example 5); type: cell-based, Coprinopsis cinerea
Protocol: FIG. 9: Effect on C. cinerea fruiting body development by GSK3 inhibitor-LiCl at different concentration. Water or LiCl solution was spread on the surface of YMG agar, before inoculation. After 6-days all dark incubation in 37° C., the plates were transferred to 25° C. with 12-hours light and 12-hours dark cycle (light/dark cycle) for 5-days incubation. […] Initials and hyphal knots formed on the plates treated with 0.75 g/L and 1.5 g/L LiCl respectively.
FIG. 10: Effect on C. cinerea fruiting body development by GSK3 inhibitor-CHIR-99021 HCl at different concentration. Water or CHIR-99021 HCl solution was spread on the surface of YMG agar, before inoculation. After the mycelium reached the edge of plates, the plates were transferred to 25° C. with light/dark cycle for 6-days incubation.
FIG. 11: Effect on C. cinerea fruiting body development by GSK3 activator-Cisplatin at different concentration. Water or Cisplatin solution was spread on the surface of YMG agar, before inoculation. After the mycelium reached the edge of plates, the plates were transferred to 25° C. with light/dark cycle. […] Young fruiting body developed on the control YMG plates treated with water.
Two GSK3 inhibitors (LiCl and CHIR-99021 HCl) and one GSK3 activator (Cisplatin) were tested in Coprinopsis cinerea, and one GSK3 inhibitor (LiCl) was tested in Pleurotus djamor (commonly known as the pink oyster mushroom). Belonging to the same order Agaricales, these two tested mushroom species are of two different families, Psathyrellaceae and Pleurotaceae, respectively.
Water or LiCl solution was spread on the surface of YMG agar before inoculation of C. cinerea. After 6-days all dark incubation in 37° C., the plates were transferred to 25° C. with 12-hours light and 12-hours dark cycle (light/dark cycle) for 5-days incubation. […] Initials and hyphal knots were formed on the plates treated with 0.75 g/L and 1.5 g/L LiCl respectively.
Water or CHIR-99021 HCl solution was spread on the surface of YMG agar before inoculation of C. cinerea. After the mycelium reached the edge of plates, the plates were transferred to 25° C. with light/dark cycle for 6-days incubation.
Water or Cisplatin solution was spread on the surface of YMG agar before C. cinerea inoculation. After the mycelium reached the edge of plates, the plates were transferred to 25° C. with light/dark cycle. […] Young fruiting body developed on the control YMG plates treated with water.

[2] = system: C. cinerea; test: C. cinerea on YMG agar treated with CHIR-99021 HCl (Example 2); type: cell-based, Coprinopsis cinerea
Protocol: Another GSK-3 inhibitor was used to confirm inhibition of LiCl on GSK-3. C. cinerea was cultivated on YMG agar and treated with water for control group and 1 uM, 100 uM and 500 uM of CHIR-99021 HCl for experimental group.

[3] = system: C. cinerea; test: Mycelial growth rate of LiCl treated C. cinerea on YMG agar; type: cell-based, Coprinopsis cinerea
Protocol: FIG. 3: Mycelial growth of C. cinerea with different doses of LiCl, biological triplicates were used for mean calculation.
The mycelial growth rate was measured for the LiCl treated C. cinerea. Biological triplicates were cultivated on YMG agar plates at 37° C. in darkness, treated with different doses of LiCl. The mycelium growth was recorded for 4 days.

[4] = system: C. cinerea; test: LiCl added at different developmental stages of C. cinerea; type: cell-based, Coprinopsis cinerea
Protocol: FIG. 4: The development of C. cinerea treated with 0.1 ml of 3 g/L LiCl at different stage.
FIG. 5: Life cycle of the mushroom-forming fungi, and the sensitive windows to the GSK-3 inhibitors (stages in grey). […] These stages are sensitive windows.
The effect of LiCl at different developmental stages of C. cinerea were tested. 0.1 ml of 3 g/L LiCl were added to the agar plate.

[5] = cited from earlier work
[6] = system: C. cinerea; test: LiCl clearance and fruiting body formation (Example 3); type: cell-based, Coprinopsis cinerea; details: washing mycelium and substrate with ddH2O or transfer onto clean substrate
Excerpt: The LiCl inhibition of C. cinerea mycelium can be relieved by removing LiCl or diluting the concentration of LiCl, for example, by washing the mycelium and substrate with ddH2O, or by transferring the mycelium onto a clean substrate.

[7] = system: Pleurotus djamor; test: Self-healing ability and stability of mycelium blocks; details: 2 g/L LiCl in substrate; following 30 days
Protocol: FIG. 8: Comparison of the self-healing ability between the mycelium blocks treated by heating and LiCl. The two group of mycelium blocks (e.g., Pleurotus djamor blocks) were broken in the middle. In each group, 3 blocks were spread with the solution of YMG broth and the other 3 blocks with ddH2O on the broken sites. The two parts of one block were incubated together for 3 days.
The self-healing ability and stability of the living material is tested by comparison of the self-healing ability between the mycelium blocks treated by heating and LiCl. To prepare the demo mycelium blocks, water (as in group “Heat”) or 2 g/L LiCl water solution (as in group “Lithium”), sawdust, wheat bran and calcium carbonate were mixed as substrate and autoclaved the substrate. Then the Pleurotus djamor was inoculated to the substrate, and incubated under 27° C. continuous dark for 7 days. Then 30 g of the mixture of mycelium and substrate were transferred into molds of block, with same volume and pressure. The blocks were incubated under 27° C. continuous dark for another 7 days. Then the blocks of “Heat” group were dried by oven, and the block of “Lithium” group were dried by dehumidifier, to the same mass of the “Heat” group.
The two group of mycelium blocks were broken in the middle. In each group, 3 blocks were spread with the solution of YMG broth and the other 3 blocks with ddH2O on the broken sites. […]

[8] = system: Pleurotus djamor; test: Pleurotus djamor fruiting body development, LiCl in YMG agar; type: cell-based; details: 2 g/L LiCl in YMG agar; 10 days dark at 27° C., 10 days light/dark cycle at 25° C.
Protocol: FIG. 12: Effect on Pleurotus djamor fruiting body development by GSK3 inhibitor-LiCl at different concentration. LiCl was added to YMG agar medium before autoclave. After 10-days all dark incubation in 27° C., the plates were transferred to 25° C. with 12-hours light and 12-hours dark cycle (light/dark cycle) for 10-days incubation. Mature fruiting bodies developed on the control plates.
LiCl was added to YMG agar medium before autoclave. After 10-days all dark incubation in 27° C., the plates were transferred to 25° C. with 12-hours light and 12-hours dark cycle (light/dark cycle) for 10-days incubation. Mature fruiting bodies developed on the control plates.

[9] = system: GSK-3 and its target genes; test: Quantitative real-time PCR of GSK-3 and its target genes under LiCl treatment; type: cell-based, Coprinopsis cinerea
Protocol: FIG. 6: The gene expression levels are indicated by the abundance of segments on the cDNA, by real-time PCR. […] Glycogen synthase (CC1G_01973); GSK-3 protein kinase (CC1G_03802); eukaryotic translation initiation factor 1 (CC1G_03881); Uncharacterized protein with Ricin B-type lectin domain (CC1G_05298); Translation initiation factor eIF2 gamma subunit (CC1G_09429).
The expression levels of targets genes of GSK-3 were measured to explore the mechanism of LiCl. To characterize the gene expression profile changes, quantitative real-time PCR analysis was performed. the kinase and its substrates by Orthologue searching were selected. A total of 83 GSK-3 substrates reported in human and mouse were mapped to the C. cinerea genome, and 52 orthologues were identified. Among them, CC1G_01973, CC1G_03881, and CC1G_09429 were selected for real-time PCR analysis. Samples treated by different doses of LiCl were frozen and homogenized in liquid nitrogen to extract total RNAs. […] Decreased eIF1 gene expression supports that LiCl block the fruiting through inhibiting GSK-3 activity in initiating the translation of key protein. Binding of eIF1 to 40S ribosome is key to maintain an open conformation on 40S ribosomal subunit to initiate translation (Passmore et al. 2007). Low level of eIF1 was also found to lower mRNA translation in Saccharomyces cerevisiae (You et al. 2010).

[10] = system: C. cinerea; test: Fruiting body development of C. cinerea on YMG agar with LiCl in or under the agar
[11] = during spa use (PubChem Compound Database); cited from earlier work
[12] = system: Pleurotus eryngii; details: cited from earlier work
[13] = different doses of LiCl, real-time PCR

Compound: Cc1cnc(-c2cnc(NCCNc3ccc(C#N)cn3)nc2-c2ccc(Cl)cc2Cl)[nH]1.Cl.Cl.Cl [CHIR-99021 HCl, 6-[[2-[[4-(2,4-Dichlorophenyl)-5-(5-methyl-1H-imidazol-2-yl)-2-pyrimidinyl]amino]ethyl]amino]-3-pyridinecarbonitrile trihydrochloride]
- Fruiting body development stage reached ([1]; 1 μM CHIR-99021 HCl, 6 days light/dark cycle at 25° C.): Young fruiting bodies developed
- Fruiting body development stage reached ([1]; 100 μM CHIR-99021 HCl, 6 days light/dark cycle at 25° C.): developed primordium
- Fruiting body development stage reached ([1]; 500 μM CHIR-99021 HCl, 6 days light/dark cycle at 25° C., trihydrochloride): remained arrested in mycelium stage
- Fruiting body development ([2]; 1 uM CHIR-99021 HCl): developed initials
- Fruiting body development ([2]; 100 uM CHIR-99021 HCl): developed initials
- Fruiting body formation ([2]; concentration not given): inhibits fruiting body formation
- Fruiting body development ([2]; higher CHIR-99021 HCl concentration (500 uM group)): inhibited fruiting

Compound: N.N.[Cl][Pt][Cl] [Cisplatin, cis-diamminedichloridoplatinum(II)]
- Fruiting body development stage reached ([1]; 1 ml saturated Cisplatin, 6 days light/dark cycle at 25° C.): had fruiting body and began autolysis

Compound: [Cl-].[Li+] [LiCl, Lithium chloride]
- Effect on Mycelium growth ([3]; 1.5 g/L LiCl in agar): higher than control; also recorded: Acceleration
- Effect on Mycelium growth ([3]; 3 g/L LiCl in agar): higher than control; also recorded: acceleration in mycelium growth rate
- Effect on Mycelium growth ([3]; 6 g/L LiCl in agar): inhibit the growth of mycelium; also recorded: Retarded
- Fruiting body development stage reached ([1]; 0.375 g/L LiCl, 5 days light/dark cycle at 25° C.): Primordium were formed
- Fruiting body development stage reached ([1]; 0.75 g/L LiCl, 5 days light/dark cycle at 25° C.): Initials
- Fruiting body development stage reached ([1]; 1.5 g/L LiCl, 5 days light/dark cycle at 25° C.): hyphal knots
- Fruiting body development stage reached ([1]; 3 g/L LiCl, 5 days light/dark cycle at 25° C.): arrested in mycelium stage
- Mycelium growth on plate ([1]; 6 g/L LiCl): stopped before reaching the edge of plates
- Fruiting body development stage reached ([1]; 6 g/L LiCl, 5 days light/dark cycle at 25° C.): arrested in mycelium stage
- Further development after LiCl addition ([4]; 0.1 ml of 3 g/L LiCl added at initial): led to the arrest of their development; also recorded: led to inhibition on further development; also recorded: resulted in arrestment in fruiting body development
- Further development after LiCl addition ([4]; 0.1 ml of 3 g/L LiCl added at stage-1 primordium): led to the arrest of their development; also recorded: led to inhibition on further development; also recorded: resulted in arrestment in fruiting body development
- Further development after LiCl addition ([4]; 0.1 ml of 3 g/L LiCl added at stage-2 primordium): could continue to develop into fruiting bodies; also recorded: cannot inhibit the fruiting body development
- Further development after LiCl addition ([4]; 0.1 ml of 3 g/L LiCl added at young fruiting body): could continue to develop into fruiting bodies; also recorded: cannot inhibit the fruiting body development
- Further development after LiCl addition ([4]; LiCl intervention at hyphal knot): resulted in arrestment in fruiting body development
- Further development after LiCl addition ([4]; LiCl intervention at mycelium): resulted in arrestment in fruiting body development
- Solubility [5]: soluble in water, ethanol, acetone, pyridine and nitrobenzene
- Fruiting after removing or diluting LiCl [6]: fruiting bodies develops again
- Initials and fruiting bodies on mycelium blocks [7]: clear of initials and fruiting bodies
- Fruiting body development [8]: failed to develop fruiting body
- GSK-3 gene expression ([9]; 3 g/L LiCl mixed in the substrate): general decrease in GSK-3 gene expression
- Expression level of GSK-3 gene and selected GSK-3 target genes [9, 13]: could regulate the expression; also recorded: change the expression level
- eIF1 gene expression [9, 13]: decreased with increase of LiCl concentration
- Effect on Fruiting body development ([10]; 1.5 g/L LiCl in agar): No
- Effect on Fruiting body development ([10]; 1.5 g/L LiCl under agar (concentration calculated with volume of sum of agar and H2O), 8 days): produced only a few initials and stage 1 primordia; also recorded: Retarded
- Effect on Fruiting body development ([10]; 3 g/L LiCl in agar): absence of fruiting body and No
- Effect on Fruiting body development ([10]; 3 g/L LiCl under agar (concentration calculated with volume of sum of agar and H2O)): No
- Effect on Fruiting body development ([10]; 6 g/L LiCl in agar): No
- Effect on Fruiting body development ([10]; 6 g/L LiCl under agar (concentration calculated with volume of sum of agar and H2O)): No
- Fruiting body initiation ([10]; LiCl concentration higher than 1.5 g/L, in the following 30 days): No initiation was observed
- Fruiting body initiation, dose dependence ([10]; LiCl in agar or under agar): inhibited the fruiting body initiation in a dose-dependent manner

Compound: [Li] [Lithium]
- Skin absorption [11]: not absorbed through the skin

Compound: O=C([O-])[O-].[Li+].[Li+] [lithium carbonate]
- Lithium carbonate concentration at which fruiting body cannot form [12]: higher than 0.75 mM
